# Reference: patent publication US10800815B2, “Kv1.3 potassium channel antagonists” (cgtx-Peptide Development GmbH, priority 2014, dated 2020)
# Read-outs that look alike come from different tables or passages of the source.
# Assays:
# Kv1.1 = target: T1, Kv1.1 (Homo sapiens, UniProt Q09470); test: Patch-clamp measurement of Kv1.1 channel inhibition (Example 1); format: cell-based; design: dose or concentration left out as unconfirmed
# T1 construct: expressed in transfected cells; host or cells: Sf21 insect cells, baculovirus infection
# Experimental: (§1) FIGS. 1A-1F Measurement of Kv1.3 (FIGS. 1B and 1E), Kv1.5 (FIGS. 1C and 1F) and Kv1.1 (FIGS. 1A and 1D) channel inhibition by patch-clamp.
# (§2) Peptides were dissolved at 1 μg/μl in 20 mM NaPO4 buffer pH 8.2 (1 mg in 1 ml folding buffer) and dialysed against the same buffer 3×1 L, Float-a-Lyzer cut off 500 Da (Spectrapor) at room temperature.
# (§3) HsTx 1 binding was tested at various concentrations of e.g. 100 pM, 1 nM, 10 nM, 50 nM, 100 nM, 500 nM, and 1 μM—depending on the tested channel. Representative measurements for Kv 1.1, Kv1.3 and Kv1.5 are depicted in FIGS. 1 a), 1 b), and 1 c) respectively.
# (§4) Cgtx-544 binding was tested at various concentrations of e.g. 1 nM, 10 nM, 50 nM, 100 nM, 1 μM, and 5 μM—depending on the tested channel. Representative measurements for Kv1.1, Kv1.3 and Kv1.5 are depicted in FIGS. 1 d), 1e), and 1) f, respectively.
# Kv1.5 = target: T2, Kv1.5 (Homo sapiens, UniProt P22460); test: Patch-clamp measurement of Kv1.5 channel inhibition (Example 1); format: cell-based; details: up to a concentration of 10 μM
# T2 construct: expressed in transfected cells; host or cells: Sf21 insect cells, baculovirus infection
# Experimental: as §1, §2, §3, §4
# hERG = target: T3, hERG (Homo sapiens, UniProt Q12809); test: Patchliner automated patch clamp of hERG currents in HEK cells, two-point screening (Example 2); format: cell-based; details: for Normalized Block of hERG current: steady state at end of application
# T3 construct: expressed in transfected cells; host or cells: HEK cells stably expressing hERG
# Experimental: To determine binding to Kv1.3, Jurkat cells endogenously expressing Kv1.3 were used. For binding to hERG, HEK cells stably expressing hERG were used.
# Cell culture was performed using standard cell culture techniques. In brief, cells were grown on 10 cm culture dishes or T75 culture flasks in DMEM-based media. With a confluence of about 60-80%, cells were split every 2-3 days. For recordings on the Patchliner (Nanion), Jurkat cells were resuspended and then spinned in a centrifuge. Before spinning, HEK cells were treated with Trypsin, to detach them from the dish surface. After spinning, cells were resuspended in external recording buffer to a density of approximately 1-2 million cells per ml.
# Internal recording solution: 50 mM KCl • 10 mM NaCl • 60 mM KF • 20 mM EGTA • 10 mM HEPES/KOH, pH 7.2, (Osm: ˜290 mOsm)
# 5 mM Mg-ATP and 0.3 mM Na-GTP were added fresh to the internal solution and pH adjusted to 7.2.
# External recording buffer: 140 mM NaCl • 4 mM KCl • 1 mM MgCl2 • 2 mM CaCl2 • 5 mM D-Glucose monohydrate • 10 mM HEPES/NaOH pH 7.4, (Osm: ˜298 mOsm) Compounds
# Electrophysiological recordings were performed with a Patchliner, recording up to 8 channels, simultaneously. The Patchliner is an automated patch clamp system utilizing borosilicate glass chips (NPC-16) for planar patch clamp, and operating via the PatchControlHT software. NPC-16 chips with a resistance of 3-5 MΩ for Jurkat cells and 2-3 MΩ for HEK cells were used for recordings. During recordings, cells were kept in a “cell hotel” where they were periodically pipetted up and down to maintain viability. […]
# For pharmacology on hERG, peak amplitude at the 2nd −40 mV step (tail current) was calculated using online analysis functions in PatchMaster. The leak (calculated from the 1st step to −40 mV) was subtracted from this peak to calculate the true peak and these could be plotted as a function of time.
# Values were exported to Excel to calculate concentration response curves in Igor. […] A Hill equation was fitted to estimate the IC50 for each compound and IC50 was calculated relative to maximum block. […]
# [1] = target: T4, Kv1.3 channels expressed in Sf21 insect cells (Homo sapiens, UniProt P22001); test: Stability ex vivo in human blood plasma, read out as IC50 on Kv1.3 (Example 3); format: in vitro ADME
# T4 construct: expressed in transfected cells; host or cells: Sf21 insect cells, baculovirus infection
# Experimental: The aim was to test the stability of the cgtx-544 peptide in blood plasma of mammals after different incubation times at room temperature (RT) and 37° C. Stability was defined as IC50 value of cgtx-544 after different incubation times at RT and 37° C. Blood plasma was prepared from fresh blood samples from healthy rats or humans. Heparin was added to fresh blood samples to prevent clogging. Plasma preparation was performed by centrifugation for 2 min at 2000×g at RT.
# As the cgtx-544 peptide used in these experiments was incompletely folded, a higher IC50 than normal was determined.
# To investigate the stability and activity in plasma the peptide was added to freshly prepared human and rat blood plasma at a final concentration of 2 μM. The samples were split into two aliquots and incubated at 37° C. and at room temperature (RT, 20° C.). For the electrophysiological analysis serial dilutions of the samples were prepared.
# antibody formation = format: in vivo, rat
# Experimental: FIG. 27 Analysis of mBSA specific antibodies. In the experimental groups H and I all animals have produced antibodies against the antigen mBSA during the immunization and AIA induction period.
# The remaining swelling in treated animals was assumed to be due to antibody/antigen reactions. Therefore, immunized as well as naïve animals were tested for the presence of mBSA specific antibodies. Antibodies against mBSA could be detected in all immunized animals of groups H and I seven days after arthritis induction (FIG. 27).
# T3 sequence (Q12809 whole entry): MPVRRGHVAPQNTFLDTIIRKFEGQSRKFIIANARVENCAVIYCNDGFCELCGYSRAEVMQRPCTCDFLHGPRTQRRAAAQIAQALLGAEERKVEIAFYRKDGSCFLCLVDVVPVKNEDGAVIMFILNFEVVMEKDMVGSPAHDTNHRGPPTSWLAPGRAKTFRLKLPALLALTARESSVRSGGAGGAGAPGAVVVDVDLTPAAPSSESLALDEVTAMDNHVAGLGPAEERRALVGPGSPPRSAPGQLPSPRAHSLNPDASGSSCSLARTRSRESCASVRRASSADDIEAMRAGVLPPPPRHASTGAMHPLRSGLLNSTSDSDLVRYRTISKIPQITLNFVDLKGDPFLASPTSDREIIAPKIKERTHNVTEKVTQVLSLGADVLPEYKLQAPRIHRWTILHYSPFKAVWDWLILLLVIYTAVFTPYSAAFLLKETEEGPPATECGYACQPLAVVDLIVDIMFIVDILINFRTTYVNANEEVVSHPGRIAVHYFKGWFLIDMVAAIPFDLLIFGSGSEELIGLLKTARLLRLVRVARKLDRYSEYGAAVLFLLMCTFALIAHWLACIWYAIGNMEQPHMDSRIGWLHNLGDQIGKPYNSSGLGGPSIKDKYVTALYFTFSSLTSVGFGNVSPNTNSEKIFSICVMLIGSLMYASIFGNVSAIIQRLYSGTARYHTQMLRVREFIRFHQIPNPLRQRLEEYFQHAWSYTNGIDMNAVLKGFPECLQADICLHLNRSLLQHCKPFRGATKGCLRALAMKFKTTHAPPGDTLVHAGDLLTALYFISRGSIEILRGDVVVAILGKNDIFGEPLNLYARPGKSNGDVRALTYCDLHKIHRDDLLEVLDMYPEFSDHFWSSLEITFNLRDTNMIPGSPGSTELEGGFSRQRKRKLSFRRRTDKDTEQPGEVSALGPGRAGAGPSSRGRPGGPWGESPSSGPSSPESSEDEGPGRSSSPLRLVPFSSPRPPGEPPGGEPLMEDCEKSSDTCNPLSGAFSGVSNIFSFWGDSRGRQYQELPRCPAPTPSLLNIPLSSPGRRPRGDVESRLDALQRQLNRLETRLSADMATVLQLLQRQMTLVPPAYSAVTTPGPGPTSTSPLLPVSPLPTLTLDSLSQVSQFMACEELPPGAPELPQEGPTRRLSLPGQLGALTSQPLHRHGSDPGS
# T4 sequence (P22001 whole entry): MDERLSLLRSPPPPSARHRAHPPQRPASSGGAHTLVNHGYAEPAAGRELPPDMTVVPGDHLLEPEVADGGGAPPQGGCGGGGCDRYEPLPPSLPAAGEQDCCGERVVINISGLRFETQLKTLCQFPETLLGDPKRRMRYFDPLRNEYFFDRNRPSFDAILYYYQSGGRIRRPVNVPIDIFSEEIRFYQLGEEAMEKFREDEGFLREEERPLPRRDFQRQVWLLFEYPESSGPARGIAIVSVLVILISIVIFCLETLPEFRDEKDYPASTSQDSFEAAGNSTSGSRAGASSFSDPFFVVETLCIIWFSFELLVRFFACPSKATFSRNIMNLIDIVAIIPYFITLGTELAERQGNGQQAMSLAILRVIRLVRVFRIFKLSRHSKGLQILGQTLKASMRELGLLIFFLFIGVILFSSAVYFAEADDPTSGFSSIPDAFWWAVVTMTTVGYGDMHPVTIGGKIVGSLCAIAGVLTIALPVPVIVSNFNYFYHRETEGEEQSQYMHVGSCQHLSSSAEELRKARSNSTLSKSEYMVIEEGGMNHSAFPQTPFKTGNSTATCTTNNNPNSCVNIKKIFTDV
# T2 sequence (P22460 whole entry): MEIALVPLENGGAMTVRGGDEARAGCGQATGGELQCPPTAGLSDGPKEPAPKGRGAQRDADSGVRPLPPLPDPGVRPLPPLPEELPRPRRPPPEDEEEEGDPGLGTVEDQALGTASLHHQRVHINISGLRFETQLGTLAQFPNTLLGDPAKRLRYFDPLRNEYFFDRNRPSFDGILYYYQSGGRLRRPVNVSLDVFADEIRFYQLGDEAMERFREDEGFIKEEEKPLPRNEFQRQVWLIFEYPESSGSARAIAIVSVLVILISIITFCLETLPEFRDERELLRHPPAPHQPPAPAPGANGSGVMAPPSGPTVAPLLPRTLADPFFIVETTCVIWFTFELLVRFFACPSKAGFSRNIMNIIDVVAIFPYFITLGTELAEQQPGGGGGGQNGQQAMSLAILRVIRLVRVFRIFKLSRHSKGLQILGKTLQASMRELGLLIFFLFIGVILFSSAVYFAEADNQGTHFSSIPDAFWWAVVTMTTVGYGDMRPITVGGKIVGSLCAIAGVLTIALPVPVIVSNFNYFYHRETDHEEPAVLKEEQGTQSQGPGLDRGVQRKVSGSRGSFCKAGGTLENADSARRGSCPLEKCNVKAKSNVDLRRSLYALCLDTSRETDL
# T1 sequence (Q09470 whole entry): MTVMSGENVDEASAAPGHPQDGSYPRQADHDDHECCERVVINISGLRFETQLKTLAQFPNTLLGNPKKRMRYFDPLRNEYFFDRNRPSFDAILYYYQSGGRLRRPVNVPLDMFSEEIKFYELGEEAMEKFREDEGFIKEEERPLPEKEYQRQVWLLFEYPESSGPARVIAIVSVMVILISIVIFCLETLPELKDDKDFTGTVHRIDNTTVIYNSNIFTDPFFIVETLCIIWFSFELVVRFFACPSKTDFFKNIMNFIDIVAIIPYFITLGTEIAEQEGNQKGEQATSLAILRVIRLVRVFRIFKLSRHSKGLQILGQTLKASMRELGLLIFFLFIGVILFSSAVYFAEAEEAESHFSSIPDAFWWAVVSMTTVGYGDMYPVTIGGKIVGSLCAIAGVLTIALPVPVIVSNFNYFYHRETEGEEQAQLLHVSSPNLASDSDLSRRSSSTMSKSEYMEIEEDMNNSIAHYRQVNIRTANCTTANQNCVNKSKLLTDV
smiles,measurement,setting,value
CC[C@H](C)[C@H](NC(=O)[C@@H](N)[C@@H](C)O)C(=O)N[C@H](C(=O)N[C@@H](CC(N)=O)C(=O)N[C@H](C(=O)N[C@@H](CCCCN)C(=O)N[C@H]1CSSC[C@@H]2NC(=O)[C@H](CCCCN)NC(=O)CNC(=O)[C@H](Cc3ccc(O)cc3)NC(=O)[C@@H]3CCCN3C(=O)[C@@H]3CSSC[C@@H](C(=O)O)NC(=O)[C@H](CCCNC(=N)N)NC(=O)[C@H](CC(N)=O)NC(=O)[C@@H]4CSSC[C@H](NC(=O)[C@@H]5CCCN5C(=O)[C@@H]5CCCN5C(=O)[C@H](CC(C)C)NC(=O)[C@H](CSSC[C@H](NC(=O)[C@H](CCCCN)NC(=O)[C@H](CCCNC(=N)N)NC(=O)[C@H](CC(N)=O)NC(=O)[C@H](CCSC)NC2=O)C(=O)N[C@@H](CCCCN)C(=O)N4)NC(=O)[C@H](CCC(N)=O)NC(=O)[C@H](CCCCN)NC(=O)[C@@H]2CCCN2C(=O)[C@H](CO)NC(=O)[C@H]([C@@H](C)O)NC1=O)C(=O)N[C@@H](CCCCN)C(=O)N[C@@H](C)C(=O)N[C@@H](CCC(N)=O)C(=O)N[C@@H]([C@@H](C)O)C(=O)NCC(=O)N3)C(C)C)[C@@H](C)CC [Compound 7],block of Kv1.1,Kv1.1,about 22%
same,binding to Kv1.5,Kv1.5,no binding
same,Normalized Block of hERG current,hERG; 5 μM,0.04
same,Normalized Block of hERG current,hERG; 10 μM,0.07
same,effect on hERG current,hERG; hERG expressing HEK cells,only low effects
same,significant change in activity,"[1]; 24 h, 37° C. and RT",could not be detected
same,activity after incubation in plasma,[1]; 48 h at RT,remained unchanged
same,activity after incubation in plasma,[1]; 14 days at 37° C.,no activity was detected
same,activity after incubation in plasma,[1]; 14 days at RT,unchanged activity
same,IC50,"[1]; read-out: IC50 on Kv1.3 after incubation in plasma, 48 h at 37° C.",37.3 nM
same,IC50,"[1]; read-out: IC50 on Kv1.3 in plasma, time point 0 h",20.9 nM
same,reactivity of immunized animals on cgtx-544(Mix) (anti-peptide antibodies),antibody formation; after 10 days under peptide therapy,no reactivity
same,suppression of B-lymphocytes and antibody formation (mBSA specific antibodies),antibody formation; seven days after arthritis induction,does not seem to suppress B-lymphocytes and antibody formation
